US12606561B2, “Substituted pyrazolo[1,5-a][1,3,5]triazines as CDK inhibitors” (QURIENT CO., LTD., priority 2018, dated 2026)

Columns and labels:
CDK2/Cyclin A = biological target: T1, CDK2/Cyclin A (Homo sapiens, UniProt P24941); assay: Enzymatic assay for CDK2 (LANCE Ultra kinase assay, FRET based); assay type: biochemical; settings: ATP at Km
T1 construct: purchased Invitrogen PV6290
How it was run: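 TR-FRET kinase assay at ATP Km with ULight-MBP peptide (68 nM) and Eu-anti-phospho-MBP antibody; CDK2/Cyclin A at […], CDK5/p25 at […]. 8-dose 4-fold compound dilutions; 60 min kinase reaction at 23° C., EDTA stop, 60 min detection, read at 615/665 nm.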

CDK7/Cyclin H/MNAT1 = biological target: T2, CDK7/Cyclin H/MNAT1 (Homo sapiens, UniProt P50613); assay: Enzymatic assay for CDK7 (LANCE Ultra kinase assay, FRET based); assay type: biochemical
T2 construct: purchased Invitrogen PR6749B
T2 sequence (P50613 whole entry): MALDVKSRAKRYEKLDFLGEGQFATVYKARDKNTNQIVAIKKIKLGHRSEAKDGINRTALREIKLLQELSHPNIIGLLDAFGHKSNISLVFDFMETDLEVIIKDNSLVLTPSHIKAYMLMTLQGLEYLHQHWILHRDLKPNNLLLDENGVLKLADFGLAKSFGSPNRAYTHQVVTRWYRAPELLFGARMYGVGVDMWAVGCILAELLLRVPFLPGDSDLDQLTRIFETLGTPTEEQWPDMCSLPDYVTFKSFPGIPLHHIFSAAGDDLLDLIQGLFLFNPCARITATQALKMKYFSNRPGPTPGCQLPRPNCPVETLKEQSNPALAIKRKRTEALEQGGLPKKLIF
T2 sequence (P51946 whole entry partner): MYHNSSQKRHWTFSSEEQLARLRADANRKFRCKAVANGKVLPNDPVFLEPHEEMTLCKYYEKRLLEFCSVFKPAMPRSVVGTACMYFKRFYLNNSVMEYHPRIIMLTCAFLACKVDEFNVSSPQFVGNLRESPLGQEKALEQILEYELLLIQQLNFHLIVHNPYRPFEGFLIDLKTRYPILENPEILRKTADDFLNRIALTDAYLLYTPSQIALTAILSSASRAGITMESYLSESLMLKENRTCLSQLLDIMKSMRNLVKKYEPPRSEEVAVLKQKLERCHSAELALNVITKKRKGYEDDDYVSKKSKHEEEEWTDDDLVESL
T2 sequence (P51948 whole entry partner): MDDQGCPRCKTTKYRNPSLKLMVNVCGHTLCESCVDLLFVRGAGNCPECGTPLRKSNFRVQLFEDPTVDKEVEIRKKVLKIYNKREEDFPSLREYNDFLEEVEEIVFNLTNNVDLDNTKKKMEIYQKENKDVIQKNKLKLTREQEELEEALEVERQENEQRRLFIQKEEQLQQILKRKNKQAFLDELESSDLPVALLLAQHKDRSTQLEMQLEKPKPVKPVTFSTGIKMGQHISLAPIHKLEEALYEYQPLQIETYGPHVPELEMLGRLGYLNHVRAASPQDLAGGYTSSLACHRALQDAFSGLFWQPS
How it was run: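 With ATP set at its Km, compounds were tested against purified CDK/cyclin complexes phosphorylating a ULight-labeled peptide. Signal came from FRET between the peptide and a Europium-labeled anti-phospho-antibody.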

MV4-11 = assay: Cellular MV4-11 viability assay (CellTiter-Glo, 72 hours); assay type: cell-based; settings: Homo sapiens; MV4-11 cells
How it was run: (§1)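 After a 24 h attachment period, cells received a 0.0015–10 uM compound titration and were incubated 72 h at 37° C, 5% CO2. Viability came from CellTiter-Glo luminescence measured in duplicate.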

OVCAR-3 = OVCAR-3 viability assay (CellTiter-Glo, 72 hours); assay type: cell-based; settings: Homo sapiens; OVCAR-3 cells
How it was run: as §1

[1] = biological target: 28 CDKs family protein kinases (Homo sapiens, UniProt Q00535); assay: In vitro IC50 profile for CDKs family kinase (33PanQinase Activity Assay, ProQinase); assay type: biochemical; design: fused on or other part: GST or His tag; settings: CDK5/p25NCK; read-out: CDK7 selectivity profile in CDKs family, IC50
Chain of 28 CDKs family protein kinases (Q00535 whole entry, the tested form may be a part): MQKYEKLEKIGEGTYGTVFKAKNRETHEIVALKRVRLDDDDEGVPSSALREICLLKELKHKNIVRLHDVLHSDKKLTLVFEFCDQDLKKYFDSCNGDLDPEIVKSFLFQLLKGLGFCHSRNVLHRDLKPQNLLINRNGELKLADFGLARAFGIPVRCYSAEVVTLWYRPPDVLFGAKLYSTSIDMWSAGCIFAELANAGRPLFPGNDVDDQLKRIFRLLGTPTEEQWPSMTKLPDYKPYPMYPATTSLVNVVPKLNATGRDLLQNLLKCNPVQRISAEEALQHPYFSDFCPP
Procedure: The IC50 profile of compound 11 was determined using 28 CDKs family protein kinases through ProQinase GmbH (Freiburg, Germany). All the protocol and materials had been provided by ProQinase GmbH. Briefly, in the process, 90 μl H2O were added to each well of a compound dilution plate. To minimize potential precipitation, the H2O was added to the plate only a few minutes before the transfer of the compound solutions into the assay plates. The plate was shaken thoroughly, resulting in a “compound dilution plate/10% DMSO”. The compound dilution plate(s) were discarded at the end of the working day. For the assays (see below), 5 μl solution from each well of the compound dilution plate were transferred into the assay plates. The final volume of the assay was 50 μl. […] Kinases from external vendors, Carna Biosciences Inc.; Invitrogen Corp.; and Millipore Corp., were expressed, purified and quality-controlled by virtue of the vendors readings. […] Incorporation of ^33Pi was determined with a microplate scintillation counter (Microbeta, Wallac). […] The residual activity (in %) for each well of a particular plate was calculated by using the following formula: Res. Activity (%)=100×[(cpm of compound−low control)/(high control−low control)].

## CC(C)c1cnn2c(NCc3ccccc3-c3nccc4cc(NC(=O)/C=C/CN(C)C)ccc34)nc(N3CCC(N)CC3)nc12 [Compound 11]
CDK2/Cyclin A
  IC50: > 1 µM
CDK7/Cyclin H/MNAT1; ATP at Km
  IC50: < 0.1 µM
CDK7/Cyclin H/MNAT1; CDK7 over CDK1
  CDK1/CDK7: Selectivity of CDK7 inhibition over CDK1 inhibition: A (A indicates [fold] > 500)
CDK7/Cyclin H/MNAT1; CDK7 over CDK2
  CDK2/CDK7: Selectivity of CDK7 inhibition over CDK2 inhibition: A (A indicates [fold] > 500)
CDK7/Cyclin H/MNAT1; CDK7 over CDK5
  CDK5/CDK7: Selectivity of CDK7 inhibition over CDK5 inhibition: A (A indicates [fold] > 500)
MV4-11
  IC50: < 1 µM
OVCAR-3
  IC50: < 1 µM
[1]
  IC50: > 10 µM
